# Assay results reported in patent US12331019B2, “Modified amino acid derivatives for the treatment of neurological diseases and selected psychiatric disorders” (Uniwersytet Jagiellonski, priority 2019, dated 2025).
# Key:
# patients = conditions: monotherapy; cited from earlier work
# Swiss albino mice (CD-1) [1] = conditions: i.p., CD-1 mice, 30 min; racemates, disclosed in publications; cited from earlier work
# Swiss albino mice (CD-1) [2] = conditions: i.p., CD-1 mice, 30 min; racemates, disclosed in publications; cited from earlier work; remark: listed apart in the source
# [3] = test system: black C57 mice (Charles River); assay: 6 Hz (44 mA) test, ETSP; type: in vivo; conditions: Mus musculus, ip, 1 h, i.p., tested 60 min after administration
# Description: (§1) The study was conducted on male Swiss albino mice (CD-1) weighing 18-26 g. All procedures were carried out in accordance with applicable Polish and international guidelines on the ethics of animal testing, after obtaining appropriate institutional approval. […] These studies were carried out on individuals of male C57 black mice (Charles River) and individuals of male Sprague-Dawley rats. All tests were carried out based on the procedures described in the specialist literature.
# (§2) Screening was performed on groups of 4-8 mice or 4-8 rats. The median effective dose (ED50) in a given test was estimated based on the results obtained in 3-4 groups of animals consisting of at least 6 individuals.
# (§3) To perform a statistical evaluation of the results, one-way analysis of variance (ANOVA) followed by Dunnett's post hoc test (multiple comparison test) were used. The values were considered statistically significant if p<0.05.
# [4] = test system: black C57 mice (Charles River); assay: corneal kindled seizure model, ETSP; type: in vivo; conditions: Mus musculus, ip, 1 h, i.p., tested 60 min after administration
# Description: as §1, §2, §3
# in vivo = conditions: male, C57 black, mouse, ip
# Description: as §1
# (§4) These studies were also carried out in rats according to the methodology described by ETSP. The toxic dose (TD50) in the rotarod test was estimated based on the results obtained in 3-4 groups of animals consisting of at least 6 individuals.
# as §3
# CYP2C9 = CYP2C9 (Homo sapiens, UniProt P11712); conditions: 10 μM
# Description: (§5) The studies were conducted using commercial luminescence tests CYP3A4 P450-Glo™, CYP2D6 P450-Glo™ and CYP2C9 P450-Glo™ from Promega (Madison, WI, USA).
# (§6) The studies were conducted using commercial luminescence tests CYP3A4 P450-Glo™, CYP2D6 P450-Glo™ and CYP2C9 P450-Glo™ from Promega (Madison, WI, USA). The CYP isoforms selected for study are responsible for the metabolism of approximately 60-70% of the drugs available and their stimulation or inhibition determines the majority of metabolic drug interactions.
# HaCaT cells = assay: cytotoxic activity, MTT assay; type: cell-based; conditions: Homo sapiens, 72 hours incubation, mean ± SD
# Excerpt: MTT assay. […] The IC50 value was estimated using CompuSyn version 1.0.
# CYP3A4 = target: T1, CYP3A4 (Homo sapiens, UniProt P08684); assay: CYP3A4 P450-Glo luminescence test; type: in vitro ADME; conditions: 10 μM
# T1 construct: purchased Promega (Madison, WI, USA)
# Description: as §5, §6
# mice [5] = assay: formalin test; type: in vivo, mouse; conditions: vs vehicle control
# Description: as §1, with “literature. […] The study group consisted of 8-10 animals. […] To perform a statistical evaluation of the results, one-way analysis of variance (ANOVA) followed by Dunnett's post hoc test (multiple comparison test) were used. The values were considered statistically significant if p<0.05.” for “literature.”
# mice [6] = assay: forced swim test (Porsolt test); type: in vivo, mouse; conditions: 30, 45 and 60 mg/kg i.p.; vs vehicle control
# Description: as §1, with “literature. […] The study group consisted of 8-10 animals. […] To perform a statistical evaluation of the results, one-way analysis of variance (ANOVA) followed by Dunnett's post hoc test (multiple comparison test) were used. The values were considered statistically significant if p<0.05.” for “literature.”
# CYP2D6 = target: T2, CYP2D6 (Homo sapiens, UniProt P10635); assay: CYP2D6 P450-Glo luminescence test; type: in vitro ADME; conditions: 10 μM
# T2 construct: purchased Promega (Madison, WI, USA)
# Description: as §5, §6
# HepG2 cell line = assay: hepatotoxicity, MTS test; conditions: 72 hours incubation, concentration range 1-100 μM
# mice [7] = assay: neuroprotection in pilocarpine-induced status epilepticus (Fluoro-Jade B); conditions: PILO 300 mg/kg i.p.; dose of compound determined in the 6 Hz (32 mA) test; five mice shown (B-F)
# mice [8] = assay: spontaneous locomotor activity test; type: in vivo, mouse
# Description: The assessment of the influence of the tested compounds on the spontaneous locomotor activity of animals (assessment of the sedative or activating effect) was carried out in accordance with the methodology described in the scientific literature (Mogilski et al. Inflamm. Res. 2017, 66, 79-95). The study group consisted of 10 animals.
# mice [9] = assay: streptozotocin-induced model of painful diabetic neuropathy, von Frey test; type: in vivo, mouse; conditions: 3 weeks after streptozotocin
# Description: as §1, with “literature. […] The study group consisted of 8-10 animals. […] To perform a statistical evaluation of the results, one-way analysis of variance (ANOVA) followed by Dunnett's post hoc test (multiple comparison test) were used. The values were considered statistically significant if p<0.05.” for “literature.”
# Sprague-Dawley rats [10] = assay: lamotrigine resistant amygdala kindled seizure model; type: in vivo, rat; conditions: 70 mg/kg i.p., 30 min, 5 rats tested
# Description: as §1, §2
# mice [11] = assay: oxaliplatin-induced neuropathic pain model, von Frey test; type: in vivo, mouse
# Description: as §1, with “literature. […] The study group consisted of 8-10 animals. […] To perform a statistical evaluation of the results, one-way analysis of variance (ANOVA) followed by Dunnett's post hoc test (multiple comparison test) were used. The values were considered statistically significant if p<0.05.” for “literature.”
# HEK-293 cell line = assay: cytotoxic activity, MTS test; conditions: 72 hours incubation, concentration range 1-100 μM
# Sprague-Dawley rats [12] = assay: MES test in rats, ETSP; type: in vivo; conditions: Rattus norvegicus, ip, 0.5 h, i.p., tested 30 min after administration, 95% confidence limits in brackets
# Description: as §1, §2, §3
# human liver microsomes = assay: metabolic stability in human liver microsomes; type: in vitro ADME; conditions: 120 minutes incubation, NADPH cofactor
# Description: The metabolic stability study was performed using human liver microsomes purchased from Sigma-Aldrich (St. Louis, MO, USA).
# [13] = test system: neurons derived from human neuroblastoma SH-SY5Y cells; assay: neurotrophic activity on human neurons, MTT test; conditions: 48 hours; for viability of human neurons under standard conditions: 0.1 to 100 μg/ml; for concentrations from which the compound acted trophically (eliminating the effect of lack of B27 supplement): trophic stress (B27 removed)
# mice [14] = assay: four plates test (Aron test); type: in vivo, mouse; conditions: vs vehicle control
# Description: as §1, with “literature. […] The study group consisted of 8-10 animals. […] To perform a statistical evaluation of the results, one-way analysis of variance (ANOVA) followed by Dunnett's post hoc test (multiple comparison test) were used. The values were considered statistically significant if p<0.05.” for “literature.”
# [15] = rotarod test (motor coordination); conditions: male, Swiss albino (CD-1), mouse, in vivo, ip
# Description: as §1, §4, §3
# Swiss albino mice (CD-1) [16] = assay: 6 Hz (44 mA) psychomotor seizure test; type: in vivo; conditions: Mus musculus, ip, 0.5 h; i.p., CD-1 mice, tested 30 min after administration
structure (smiles),measurement,setting,value
O=C1NC(=O)C(c2ccccc2)(c2ccccc2)N1 [phenytoin],"sedative effect, share of patients",patients,approx. 32 % of patients
Nc1nnc(-c2cccc(Cl)c2Cl)c(N)n1 [lamotrigine],"sedative effect, share of patients",patients,approx. 10 % of patients
"CC(C(=O)NCc1ccccc1F)N1C(=O)CCC1=O (racemic) [(RS)-2, (2RS)-2-(2,5-dioxopyrrolidin-1-yl)-N-(2-fluorobenzyl)propanamide]",TD50 Rotarod test,Swiss albino mice (CD-1) [1],300.9 mg/kg
"CC(C(=O)NCc1ccccc1)N1C(=O)CCC1=O (racemic) [(RS)-1, (2RS)—N-benzyl-2-(2,5-dioxopyrrolidin-1-yl)propenamide]",ED50 6 Hz (44 mA),Swiss albino mice (CD-1) [2],75.41 mg/kg
NCC1(CC(=O)O)CCCCC1 [gabapentin],"sedative effect, share of patients",patients,approx. 9 % of patients
"C[C@H](C(=O)NCc1ccccc1)N1C(=O)CCC1=O [Compound 1, (2R)—N-benzyl-2-(2,5-dioxopyrrolidin-1-yl)propanamide]",ED50,[3],69.9 mg/kg
same,ED50,[4],38.1 mg/kg
same,TD50 at 60 min,in vivo,> 150 mg/kg
same,effect on CYP2C9 activity,CYP2C9,"small, statistically significant (p<0.05) inhibition"
same,IC50,HaCaT cells,239.8 ± 0.6 µM
same,effect on CYP3A4 activity,CYP3A4,no effect
same,"nociceptive response time, second phase (tonic inflammatory pain)","mice [5]; i.p., 30, 60 and 90 mg/kg",statistically significantly shortened the time of nociceptive response
same,"nociceptive response time, first phase (acute pain)","mice [5]; i.p., all doses, statistically significant at 60 and 90 mg/kg",reduced the nociceptive response time
same,immobility time,mice [6],statistically significantly shortened the immobility time
same,effect on CYP2D6 activity,CYP2D6,no effect
same,effect on cell viability,HepG2 cell line,did not show a statistically significant effect
same,neuroprotective effect after PILO-induced SE (neurodegenerative changes),mice [7],a protective effect was obtained for four mice
same,number of light beams interruptions during 30 minutes (spontaneous locomotor activity),"mice [8]; 30, 60 and 90 mg/kg i.p.",statistically significantly increased the number of light beams interruptions
same,pain threshold (mechanical stimulus),mice [9]; 90 mg/kg i.p.,increased the pain threshold to the values observed before the induction of streptozotocin diabetes
same,pain threshold (mechanical stimulus),"mice [9]; 30, 60 and 90 mg/kg i.p., vs measurement before compound",led to an increase in the pain threshold in a statistically significant and dose-dependent manner
same,Number of protected rats,Sprague-Dawley rats [10],Number of protected rats: 3
same,protection,Sprague-Dawley rats [10],(protection—60%)
same,pain threshold (mechanical stimulus),mice [11]; 30 mg/kg i.p.,increased the pain threshold only in the early phase
same,pain threshold (mechanical stimulus),"mice [11]; 60 mg/kg and 90 mg/kg i.p., early (3 h) and late (7 days) phase, vs measurement before compound",led to an increase in pain threshold at a dose-dependent manner
same,effect on cell viability,HEK-293 cell line,did not show a statistically significant effect
same,ED50,Sprague-Dawley rats [12],34.9 mg/kg
same,metabolites on UPLC chromatogram of reaction mixture,human liver microsomes,no metabolites appeared
same,viability of human neurons under standard conditions,[13],did not affect the viability
same,concentrations from which the compound acted trophically (eliminating the effect of lack of B27 supplement),[13],≥ 1 µg/mL
same,number of electrically punished plate crossings,mice [14]; 30 mg/kg i.p.,did not result in a statistically significant difference
same,number of electrically punished plate crossings,mice [14]; 60 mg/kg and 90 mg/kg i.p.,statistically significantly increased the number of electrically punished plate crossings
CC[C@@H](C(N)=O)N1CCCC1=O [levetiracetam],"sedative effect, share of patients",patients,approx. 20 % of patients
"C[C@H](C(=O)NCc1ccccc1F)N1C(=O)CCC1=O [Compound 2, (2R)-2-(2,5-dioxopyrrolidin-1-yl)-N-(2-fluorobenzyl)propanamide]",TD50 at 30 min,[15],299 mg/kg
same,spontaneous locomotor activity,mice [8]; 90 mg/kg i.p.,statistically significant increase in spontaneous locomotor activity
same,ED50,Swiss albino mice (CD-1) [16],37.2 mg/kg
same,viability of human neurons under standard conditions,[13],did not affect the viability
same,concentrations from which the compound acted trophically (eliminating the effect of lack of B27 supplement),[13],≥ 0.1 µg/mL
"COc1cccc2c1C(=O)c1c(O)c3c(c(O)c1C2=O)C[C@@](O)(C(=O)CO)C[C@@H]3O[C@H]1C[C@H](N)[C@H](O)[C@H](C)O1 [Doxorubicin, reference compound]",IC50,HaCaT cells,0.23 ± 0.03 µM
CCC1(c2ccccc2)C(=O)NC(=O)NC1=O [phenobarbital],"sedative effect, share of patients",patients,approx. 39 % of patients
